Molecular target: human GPR40 receptor (Homo sapiens (Human), UniProt O14842)
Assay: IP1 accumulation measurements using the IPOne assay system
Type: cell-based
Details: 1321N1 cells stably expressing human GPR40 receptor, 1 h stimulation
Method: IP1 accumulation measurements using the IPOne assay system—1321N1 cells stably expressing human GPR40 receptor (Euroscreen, Belgium) are seeded 24 h before the assay in white 384-well plates in culture medium containing 10% FCS, 1% Na-Pyruvate and 400 μg/mL G418. IP1 is assayed according to the manufacturer's description (Cisbio Bioassays, France). In brief, the assay is started by substitution of the culture medium by stimulation buffer (Hepes 10 mM, CaCl2 1 mM, MgCl2 0.5 mM, KCl 4.2 mM, NaCl 146 mM, glucose 5.5 mM and LiCl 50 mM, pH 7.4). Cells are stimulated for 1 h at 37° C., 5% CO2 by addition of the compounds that are diluted in stimulation buffer containing LiCl. Assays are stopped by adding HTRF-conjugates (IP1-d2 and Anti-IP1 cryptate Tb) and lysis buffer, provided by the manufacturer. After an incubation time of 1 h at room temperature plates are measured using an EnVision™, Perkin Elmer. The obtained fluorescence ratios at 665/615 […] are then used to calculate the pEC50 values using Assay Explorer 3.3 Software (Accelrys, Inc.) by interpolation using an IP1 reference curve and subsequent sigmoidal curve fitting allowing for a variable hill slope.

Sequence of human GPR40 receptor (O14842 whole entry): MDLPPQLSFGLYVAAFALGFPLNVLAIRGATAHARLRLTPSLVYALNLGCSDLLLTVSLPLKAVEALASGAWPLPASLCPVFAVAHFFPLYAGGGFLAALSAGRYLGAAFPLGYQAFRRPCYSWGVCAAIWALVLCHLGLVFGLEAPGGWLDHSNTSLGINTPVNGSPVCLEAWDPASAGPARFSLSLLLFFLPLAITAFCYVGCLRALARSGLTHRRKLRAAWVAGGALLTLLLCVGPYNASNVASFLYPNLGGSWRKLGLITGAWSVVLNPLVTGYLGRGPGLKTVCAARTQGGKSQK

| SMILES | EC50 [nM] |
| --- | --- |
| N#Cc1cc(Oc2ccc(F)c3c2CC[C@H]3Oc2ccc3c(c2)OC[C@H]3CC(=O)O)ccc1O[C@@H]1CCOC1 [Example 43, ((S)-6-{(R)-4-[3-Cyano-4-((R)-tetrahydrofuran-3-yloxy)phenoxy]-7-fluoro-indan-1-yloxy}-2,3-dihydrobenzofuran-3-yl)-acetic acid] | 18 |
| O=C(O)C[C@@H]1COc2cc(O[C@@H]3CCc4c(Oc5ccc6c(c5)NC(=O)CC6)ccc(F)c43)ccc21 [Example 24, {(S)-6-[(R)-7-Fluoro-4-(2-oxo-1,2,3,4-tetrahydroquinoline-7-yloxy)-indan-1-yloxy]-2,3-dihydrobenzofuran-3-yl}-acetic acid] | 10 |
| CC(C)(O)CCOc1ccc(Oc2ccc(F)c3c2CC[C@H]3Oc2ccc3c(c2)OC[C@H]3CC(=O)O)nc1 [Example 17, [(S)-6-{(R)-7-Fluoro-4-[5-(3-hydroxy-3-methyl-butoxy)-pyridin-2-yloxy]-indan-1-yloxy}-2,3-dihydro-benzofuran-3-yl]-acetic acid] | 23 |
| Cc1noc(C)c1-c1ccc(Oc2ccc(F)c3c2CC[C@H]3Oc2ccc3c(c2)OC[C@H]3CC(=O)O)c(F)c1 [Example 54, ((S)-6-{(R)-4-[4-(3,5-Dimethylisoxazol-4-yl)-2-fluorophenoxy]-7-fluoro-indan-1-yloxy}-2,3-dihydrobenzofuran-3-yl)-acetic acid] | 9 |
| CN(C)C(=O)c1ccc(Oc2ccc(F)c3c2CC[C@H]3Oc2ccc3c(c2)OC[C@H]3CC(=O)O)cc1 [Example 63, ((S)-6-{(R)-4-[4-(Dimethylcarbamoyl)phenoxy]-7-fluoro-indan-1-yloxy}-2,3-dihydrobenzofuran-3-yl)-acetic acid] | 22 |
| N#Cc1ccc(Oc2ccc(F)c3c2CC[C@H]3Oc2ccc3c(c2)OC[C@H]3CC(=O)O)cc1OC1CCOCC1 [Example 51, ((S)-6-{(R)-4-[4-Cyano-3-(tetrahydro-2H-pyran-4-yloxy)phenoxy]-7-fluoro-indan-1-yloxy}-2,3-dihydrobenzofuran-3-yl)-acetic acid] | 29 |
| CC(C)(O)CCCc1ccc(Oc2ccc(F)c3c2CC[C@H]3Oc2ccc3c(c2)OC[C@H]3CC(=O)O)c(C#N)c1 [Example 56, ((S)-6-{(R)-4-[2-Cyano-4-(4-hydroxy-4-methylpentyl)phenoxy]-7-fluoro-indan-1-yloxy}-2,3-dihydrobenzofuran-3-yl)-acetic acid] | 38 |
| Cc1ncc(-c2ccc(Oc3ccc(F)c4c3CC[C@H]4Oc3ccc4c(c3)OC[C@H]4CC(=O)O)cc2)s1 [Example 22, [(S)-6-{(R)-7-Fluoro-4-[4-(2-methyl-thiazol-5-yl)-phenoxy]-indan-1-yloxy}-2,3-dihydro-benzofuran-3-yl]-acetic acid] | 5 |
| O=C(O)C[C@@H]1COc2cc(O[C@@H]3CCc4c(Oc5ccc(-c6nnn[nH]6)cc5)ccc(F)c43)ccc21 [Example 13, [(S)-6-{(R)-7-Fluoro-4-[4-(1H-tetrazol-5-yl)-phenoxy]-indan-1-yloxy}-2,3-dihydro-benzofuran-3-yl]-acetic acid] | 282 |
| O=C(O)C[C@@H]1COc2cc(O[C@@H]3CCc4c(Oc5ccc(CC6CCOCC6)cc5)ccc(F)c43)ccc21 [Example 35, [(S)-6-((R)-7-Fluoro-4-{4-[(tetrahydro-2H-pyran-4-yl)methyl]phenoxy}-indan-1-yloxy)-2,3-dihydrobenzofuran-3-yl]-acetic acid] | 5 |
| O=C(O)C[C@@H]1COc2cc(O[C@@H]3CCc4c(Oc5ccc(C(=O)N6CCOCC6)cc5)ccc(F)c43)ccc21 [Example 64, ((S)-6-{(R)-7-Fluoro-4-[4-(morpholine-4-carbonyl)phenoxy]-indan-1-yloxy}-2,3-dihydrobenzofuran-3-yl)-acetic acid] | 27 |
| CC(C)(O)Cn1cc(-c2c(F)cc(Oc3ccc(F)c4c3CC[C@H]4Oc3ccc4c(c3)OC[C@H]4CC(=O)O)cc2F)cn1 [Example 20, {(S)-6-[(R)-4-{3,5-Difluoro-4-[1-(2-hydroxy-2-methyl-propyl)-1H-pyrazol-4-yl]-phenoxy}-7-fluoro-indan-1-yloxy]-2,3-dihydro-benzofuran-3-yl}-acetic acid] | 7 |
| N#Cc1cc(CN2CCOCC2)ccc1Oc1ccc(F)c2c1CC[C@H]2Oc1ccc2c(c1)OC[C@H]2CC(=O)O [Example 70, ((S)-6-{(R)-4-[2-Cyano-4-(morpholin-4-ylmethyl)phenoxy]-7-fluoro-indan-1-yloxy}-2,3-dihydrobenzofuran-3-yl)-acetic acid] | 44 |
| CC(=O)NCc1cccc(Oc2ccc(F)c3c2CC[C@H]3Oc2ccc3c(c2)OC[C@H]3CC(=O)O)c1 [Example 7, [(S)-6-{(R)-4-[3-(Acetylamino-methyl)-phenoxy]-7-fluoro-indan-1-yloxy}-2,3-dihydro-benzofuran-3-yl]-acetic acid] | 55 |
| O=C(O)C[C@@H]1COc2cc(O[C@@H]3CCc4c(Oc5ccc6c(c5)OCCO6)ccc(F)c43)ccc21 [Example 26, {(S)-6-[(R)-4-(2,3-Dihydrobenzo[b][1,4]dioxin-6-yloxy)-7-fluoro-indan-1-yloxy]-2,3-dihydrobenzofuran-3-yl}-acetic acid] | 6 |
| O=C(O)C[C@@H]1COc2cc(O[C@@H]3CCc4c(Oc5cc(OC6CCOCC6)ccc5F)ccc(F)c43)ccc21 [Example 46, ((S)-6-{(R)-7-Fluoro-4-[2-fluoro-5-(tetrahydro-2H-pyran-4-yloxy)phenoxy]-indan-1-yloxy}-2,3-dihydrobenzofuran-3-yl)-acetic acid] | 62 |
| O=C(O)C[C@@H]1COc2cc(O[C@@H]3CCc4c(Oc5ccc(-c6nccs6)cc5)ccc(F)c43)ccc21 [Example 21, {(S)-6-[(R)-7-Fluoro-4-(4-thiazol-2-yl-phenoxy)-indan-1-yloxy]-2,3-dihydro-benzofuran-3-yl}-acetic acid] | 6 |
| CC(C)(O)CCOc1ccc(Oc2ccc(F)c3c2CC[C@H]3Oc2ccc3c(c2)OC[C@H]3CC(=O)O)c(C#N)c1 [Example 47, ((S)-6-{(R)-4-[2-Cyano-4-(3-hydroxy-3-methylbutoxy)phenoxy]-7-fluoro-indan-1-yloxy}-2,3-dihydrobenzofuran-3-yl)-acetic acid] | 8 |
| N#CCc1ccc(Oc2ccc(F)c3c2CC[C@H]3Oc2ccc3c(c2)OC[C@H]3CC(=O)O)cc1 [Example 60, ((S)-6-{(R)-4-[4-(Cyanomethyl)phenoxy]-7-fluoro-indan-1-yloxy}-2,3-dihydrobenzofuran-3-yl)-acetic acid] | 20 |
| Cn1nccc1-c1ccc(Oc2ccc(F)c3c2CC[C@H]3Oc2ccc3c(c2)OC[C@H]3CC(=O)O)c(C#N)c1 [Example 48, ((S)-6-{(R)-4-[2-Cyano-4-(1-methyl-1H-pyrazol-5-yl)phenoxy]-7-fluoro-indan-1-yloxy)-2,3-dihydrobenzofuran-3-yl}-acetic acid] | 9 |
| CC(C)(O)COc1cc(Oc2ccc(F)c3c2CC[C@H]3Oc2ccc3c(c2)OC[C@H]3CC(=O)O)ccc1C#N [Example 52, ((S)-6-{(R)-4-[4-Cyano-3-(2-hydroxy-2-methylproproxy)phenoxy]-7-fluoro-indan-1-yloxy}-2,3-dihydrobenzofuran-3-yl)-acetic acid] | 31 |
| O=C(O)C[C@@H]1COc2cc(O[C@@H]3CCc4c(Oc5ccnc(O[C@H]6CCOC6)c5)ccc(F)c43)ccc21 [Example 16, {(S)-6-[(R)-7-fluoro-4-{2-[(S)-tetrahydro-furan-3-yloxy]-pyridin-4-yloxy}-indan-1-yloxy]-2,3-dihydro-benzofuran-3-yl}-acetic acid] | 9 |
| CC(C)(O)CCCc1ccc(C#N)c(Oc2ccc(F)c3c2CC[C@H]3Oc2ccc3c(c2)OC[C@H]3CC(=O)O)c1 [Example 41, ((S)-6-{(R)-4-[2-Cyano-5-(4-hydroxy-4-methylpentyl)phenoxy]-7-fluoro-indan-1-yloxy}-2,3-dihydrobenzofuran-3-yl)-acetic acid] | 85 |
| O=C(O)C[C@@H]1COc2cc(O[C@@H]3CCc4c(Oc5ccc(CN6CCOCC6)cc5)ccc(F)c43)ccc21 [Example 5, {(S)-6-[(R)-7-Fluoro-4-(4-morpholin-4-ylmethyl-phenoxy)-indan-1-yloxy]-2,3-dihydro-benzofuran-3-yl}-acetic acid] | 25 |
| Cn1nccc1-c1ccc(Oc2ccc(F)c3c2CC[C@H]3Oc2ccc3c(c2)OC[C@H]3CC(=O)O)c(F)c1 [Example 55, ((S)-6-{(R)-7-Fluoro-4-[2-fluoro-4-(1-methyl-1H-pyrazol-5-yl)phenoxy]-indan-1-yloxy}-2,3-dihydrobenzofuran-3-yl)-acetic acid] | 6 |
| CC(C)(O)CCOc1ccc(F)c(Oc2ccc(F)c3c2CC[C@H]3Oc2ccc3c(c2)OC[C@H]3CC(=O)O)c1 [Example 45, ((S)-6-{(R)-7-Fluoro-4-[2-fluoro-5-(3-hydroxy-3-methylbutoxy)phenoxy]-indan-1-yloxy}-2,3-dihydrobenzofuran-3-yl)-acetic acid] | 29 |
| O=C(O)C[C@@H]1COc2cc(O[C@@H]3CCc4c(Oc5ccc(O[C@H]6CCOC6)cn5)ccc(F)c43)ccc21 [Example 18, {(S)-6-[(R)-7-Fluoro-4-{5-[(S)-tetrahydro-furan-3-yloxy}-pyridin-2-yloxy}-indan-1-yloxy]-2,3-dihydro-benzofuran-3-yl}-acetic acid] | 31 |
| CC(C)(O)CCn1ncc2cc(Oc3ccc(F)c4c3CC[C@H]4Oc3ccc4c(c3)OC[C@H]4CC(=O)O)ccc21 [Example 30, ((S)-6-{(R)-7-Fluoro-4-[1-(3-hydroxy-3-methylbutyl)-1H-indazol-5-yloxy]-indan-1-yloxy}-2,3-dihydrobenzofuran-3-yl)-acetic acid] | 13 |
